These results are taken from US8541588B2, “Sulfonamide derivatives” (Pfizer Limited, priority 2009, dated 2013).

SMILES strings stand for the structures.

T1 sequence (Q15858 whole entry): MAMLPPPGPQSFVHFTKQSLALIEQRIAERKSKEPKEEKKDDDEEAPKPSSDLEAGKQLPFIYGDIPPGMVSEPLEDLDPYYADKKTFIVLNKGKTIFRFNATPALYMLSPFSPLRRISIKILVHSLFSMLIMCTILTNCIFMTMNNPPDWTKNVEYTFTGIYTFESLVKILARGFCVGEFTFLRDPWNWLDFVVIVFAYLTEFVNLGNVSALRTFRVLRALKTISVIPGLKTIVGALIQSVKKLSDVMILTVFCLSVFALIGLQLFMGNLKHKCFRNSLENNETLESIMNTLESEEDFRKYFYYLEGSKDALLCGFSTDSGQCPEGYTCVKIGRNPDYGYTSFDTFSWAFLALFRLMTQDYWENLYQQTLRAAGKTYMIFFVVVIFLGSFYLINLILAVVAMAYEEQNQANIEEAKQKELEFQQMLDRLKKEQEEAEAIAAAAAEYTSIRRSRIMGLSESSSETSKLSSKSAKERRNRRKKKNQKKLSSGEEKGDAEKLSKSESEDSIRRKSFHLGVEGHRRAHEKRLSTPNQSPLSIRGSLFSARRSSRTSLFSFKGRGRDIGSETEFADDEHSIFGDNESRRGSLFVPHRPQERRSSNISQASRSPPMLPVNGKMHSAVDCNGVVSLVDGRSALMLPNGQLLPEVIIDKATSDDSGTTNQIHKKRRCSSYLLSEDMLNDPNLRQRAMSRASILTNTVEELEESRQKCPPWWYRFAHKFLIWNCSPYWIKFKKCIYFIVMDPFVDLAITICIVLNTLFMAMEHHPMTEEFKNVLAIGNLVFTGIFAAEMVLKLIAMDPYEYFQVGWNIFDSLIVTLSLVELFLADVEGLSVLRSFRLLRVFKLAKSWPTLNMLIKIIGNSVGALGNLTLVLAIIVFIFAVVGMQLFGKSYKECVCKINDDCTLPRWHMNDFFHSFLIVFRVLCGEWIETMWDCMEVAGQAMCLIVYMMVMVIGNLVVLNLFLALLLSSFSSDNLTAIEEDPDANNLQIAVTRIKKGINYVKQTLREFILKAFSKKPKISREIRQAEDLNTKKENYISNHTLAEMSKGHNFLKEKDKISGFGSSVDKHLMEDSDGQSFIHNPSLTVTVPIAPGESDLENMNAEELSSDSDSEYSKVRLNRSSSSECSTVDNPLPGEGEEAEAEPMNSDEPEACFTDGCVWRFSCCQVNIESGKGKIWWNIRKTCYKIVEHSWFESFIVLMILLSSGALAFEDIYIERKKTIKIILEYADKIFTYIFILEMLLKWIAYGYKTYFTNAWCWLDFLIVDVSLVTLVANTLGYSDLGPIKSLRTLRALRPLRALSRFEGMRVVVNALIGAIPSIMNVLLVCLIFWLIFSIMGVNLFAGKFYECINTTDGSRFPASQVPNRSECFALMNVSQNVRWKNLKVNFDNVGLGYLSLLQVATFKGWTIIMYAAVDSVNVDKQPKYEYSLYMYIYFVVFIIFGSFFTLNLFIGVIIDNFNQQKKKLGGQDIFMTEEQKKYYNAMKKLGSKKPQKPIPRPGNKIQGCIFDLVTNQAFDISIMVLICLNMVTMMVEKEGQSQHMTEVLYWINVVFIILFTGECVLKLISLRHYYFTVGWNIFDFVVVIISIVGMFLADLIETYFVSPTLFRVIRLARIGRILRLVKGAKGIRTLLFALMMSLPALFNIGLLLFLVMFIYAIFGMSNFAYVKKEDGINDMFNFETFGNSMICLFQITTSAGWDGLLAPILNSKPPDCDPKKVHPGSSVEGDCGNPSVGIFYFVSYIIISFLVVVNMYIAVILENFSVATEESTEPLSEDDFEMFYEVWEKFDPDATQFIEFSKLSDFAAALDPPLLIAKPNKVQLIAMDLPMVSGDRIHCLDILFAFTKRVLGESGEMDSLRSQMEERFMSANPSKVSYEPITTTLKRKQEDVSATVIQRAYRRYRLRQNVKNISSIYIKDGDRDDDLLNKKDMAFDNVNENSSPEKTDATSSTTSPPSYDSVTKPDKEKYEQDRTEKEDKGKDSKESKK

The test addresses T1, Nav1.7 (or SCN9A) channel; HEK cells stably transfected with hSCN9A (Homo sapiens, UniProt Q15858).
T1 construct: expressed in transfected cells
Description: Nav1.7 block, PatchXpress 7000 automated whole-cell voltage clamp, estimated IC50 (EIC50). Format: cell-based. The note with it: estimated IC50; hSCN9A HEK cells, PatchXpress platform; Examples 283-814.
Turning to `N#Cc1cc(S(=O)(=O)Nc2nccc(C(F)(F)F)n2)ccc1Oc1ccccc1-c1ccccc1` [Example 434, 4-(biphenyl-2-yloxy)-3-cyano-N-[4-(trifluoromethyl)pyrimidin-2-yl]benzenesulfonamide], the IC50 is 18000 nM. Take `Cn1nccc1-c1ccc(Oc2ccc(S(=O)(=O)Nc3nccs3)cc2C#N)cc1` [Example 436, 3-cyano-4-[4-(1-methyl-1H-pyrazol-5-yl)phenoxy]-N-1,3-thiazol-2-ylbenzenesulfonamide]: the concentration for half-maximal inhibition (IC50) was 1300 nM. Regarding `Cn1nccc1-c1cc(C(F)(F)F)ccc1Oc1ccc(S(=O)(=O)Nc2ncns2)cc1C#N` [Example 437, 3-cyano-4-[2-(1-methyl-1H-pyrazol-5-yl)-4-(trifluoromethyl)phenoxy]-N-1,2,4-thiadiazol-5-ylbenzenesulfonamide], the half-maximal inhibitory concentration (IC50) is 56 nM.

For `COc1cc(-c2cc(Cl)ccc2Oc2ccc(S(=O)(=O)Nc3nccs3)cc2C#N)n(C)n1` [Example 439, 4-[4-chloro-2-(3-methoxy-1-methyl-1H-pyrazol-5-yl)phenoxy]-3-cyano-N-1,3-thiazol-2-ylbenzenesulfonamide], the concentration for half-maximal inhibition (IC50) is 490 nM. For the compound `Cn1nccc1-c1cc(C(F)(F)F)ccc1Oc1ccc(S(=O)(=O)Nc2nccs2)cc1C#N` [Example 440, 3-cyano-4-[2-(1-methyl-1H-pyrazol-5-yl)-4-(trifluoromethyl)phenoxy]-N-1,3-thiazol-2-ylbenzenesulfonamide], the 50% inhibitory concentration (IC50) is 17 nM. On to `Cn1nccc1-c1cc(C#N)ccc1Oc1cc(F)c(S(=O)(=O)Nc2ncc(Cl)s2)cc1F` [Example 441, N-(5-chloro-1,3-thiazol-2-yl)-4-[4-cyano-2-(1-methyl-1H-pyrazol-5-yl)phenoxy]-2,5-difluorobenzenesulfonamide], for which the IC50 is 960 nM.

For the compound `Cn1nccc1-c1cc(Cl)ccc1Oc1ccc(S(=O)(=O)Nc2ccccn2)cc1C#N` [Example 442, 4-[4-chloro-2-(1-methyl-1H-pyrazol-5-yl)phenoxy]-3-cyano-N-pyridin-2-ylbenzenesulfonamide], the IC50 was 1300 nM. On to `Cn1nccc1-c1ccc(Oc2ccc(S(=O)(=O)Nc3nccs3)cc2C#N)cc1Cl` [Example 443, 4-[3-chloro-4-(1-methyl-1H-pyrazol-5-yl)phenoxy]-3-cyano-N-1,3-thiazol-2-ylbenzenesulfonamide], for which the IC50 was 1800 nM. On to `N#Cc1cc(S(=O)(=O)Nc2nccs2)ccc1Oc1cccc(-c2ccn[nH]2)c1` [Example 444, 3-cyano-4-[3-(1H-pyrazol-5-yl)phenoxy]-N-1,3-thiazol-2-ylbenzenesulfonamide], for which the half-maximal inhibitory concentration (IC50) was 9900 nM. For `Cn1nccc1-c1cccc(Oc2ccc(S(=O)(=O)Nc3nccs3)cc2C#N)c1` [Example 445, 3-cyano-4-[3-(1-methyl-1H-pyrazol-5-yl)phenoxy]-N-1,3-thiazol-2-ylbenzenesulfonamide], the half-inhibitory concentration (IC50) was above 1000 nM. Take `N#Cc1cc(S(=O)(=O)Nc2nccs2)ccc1Oc1ccc(Cl)c(-c2ccn[nH]2)c1` [Example 446, 4-[4-chloro-3-(1H-pyrazol-5-yl)phenoxy]-3-cyano-N-1,3-thiazol-2-ylbenzenesulfonamide]: the IC50 was 2300 nM. In the case of `N#Cc1cc(S(=O)(=O)Nc2nccs2)ccc1Oc1cccc(-c2cc(C(F)(F)F)ccn2)c1` [Example 447, 3-cyano-N-1,3-thiazol-2-yl-4-{3-[4-(trifluoromethyl)pyridin-2-yl]phenoxy}benzenesulfonamide] it was 1800 nM; in that of `N#Cc1cc(S(=O)(=O)Nc2nccs2)ccc1Oc1cccc(-c2cccc(C(F)(F)F)n2)c1` [Example 448, 3-cyano-N-1,3-thiazol-2-yl-4-{3-[6-(trifluoromethyl)pyridin-2-yl]phenoxy}benzenesulfonamide], 2000 nM; in that of `N#Cc1cc(S(=O)(=O)Nc2nccs2)ccc1Oc1cccc(-c2ccccn2)c1` [Example 449, 3-cyano-4-(3-pyridin-2-ylphenoxy)-N-1,3-thiazol-2-ylbenzenesulfonamide], 3100 nM.

On to `Cc1ccnc(-c2ccc(Oc3ccc(S(=O)(=O)Nc4nccs4)cc3C#N)cc2)c1` [Example 450, 3-cyano-4-[4-(4-methylpyridin-2-yl)phenoxy]-N-1,3-thiazol-2-ylbenzenesulfonamide], for which the IC50 was 3400 nM. `COc1cccc(-c2ccc(Oc3ccc(S(=O)(=O)Nc4nccs4)cc3C#N)cc2)n1` [Example 451, 3-cyano-4-[4-(6-methoxypyridin-2-yl)phenoxy]-N-1,3-thiazol-2-ylbenzenesulfonamide]: the IC50 was above 1000 nM. In the case of `N#Cc1cc(S(=O)(=O)Nc2nccs2)ccc1Oc1ccc(-c2cccc(C(F)(F)F)n2)cc1` [Example 453, 3-cyano-N-1,3-thiazol-2-yl-4-{4-[6-(trifluoromethyl)pyridin-2-yl]phenoxy}benzenesulfonamide], the IC50 is 1700 nM. Then `N#Cc1cc(S(=O)(=O)Nc2nccs2)ccc1Oc1ccc(-c2nccc(C(F)(F)F)n2)cc1` [Example 454, 3-cyano-N-1,3-thiazol-2-yl-4-{4-[4-(trifluoromethyl)pyrimidin-2-yl]phenoxy}benzenesulfonamide], with above 1000 nM; and `Cc1cccnc1-c1ccc(Oc2ccc(S(=O)(=O)Nc3nccs3)cc2C#N)cc1` [Example 455, 3-cyano-4-[4-(3-methylpyridin-2-yl)phenoxy]-N-1,3-thiazol-2-ylbenzenesulfonamide], with 2300 nM; and `N#Cc1cc(S(=O)(=O)Nc2nccs2)ccc1Oc1ccc(-c2ncccc2Cl)cc1` [Example 456, 4-[4-(3-chloropyridin-2-yl)phenoxy]-3-cyano-N-1,3-thiazol-2-ylbenzenesulfonamide], with 1900 nM. Consider `N#Cc1cc(S(=O)(=O)Nc2nccs2)ccc1Oc1ccc(-c2ncccc2C(F)(F)F)cc1` [Example 457, 3-cyano-N-1,3-thiazol-2-yl-4-{4-[3-(trifluoromethyl)pyridin-2-yl]phenoxy}benzenesulfonamide], for which the IC50 is 2000 nM. Consider `N#Cc1cc(S(=O)(=O)Nc2ncns2)cc(F)c1Oc1ccc(F)cc1-c1ccn[nH]1` [Example 459, 3-cyano-5-fluoro-4-[4-fluoro-2-(1H-pyrazol-5-yl)phenoxy]-N-1,2,4-thiadiazol-5-ylbenzenesulfonamide], for which the half-maximal inhibitory concentration (IC50) is 840 nM.

`N#Cc1cc(S(=O)(=O)Nc2nccs2)ccc1Oc1ccc(C(F)(F)F)cc1-c1cn[nH]c1` [Example 460, 4-(2-(1H-pyrazol-4-yl)-4-(trifluoromethyl)phenoxy)-3-cyano-N-(thiazol-2-yl)benzenesulfonamide]: the concentration for half-maximal inhibition (IC50) was 15 nM. Consider `N#Cc1cc(S(=O)(=O)Nc2nccs2)ccc1Oc1ccc(Br)cc1-c1ccn[nH]1` [Example 461, 4-[4-bromo-2-(1H-pyrazol-5-yl)phenoxy]-3-cyano-N-1,3-thiazol-2-ylbenzenesulfonamide], for which the IC50 is 20 nM. Take `Cn1nccc1-c1cc(Cl)ccc1Oc1ccc(S(=O)(=O)Nc2ncc(C(F)(F)F)cn2)cc1C#N` [Example 462, 4-[4-chloro-2-(1-methyl-1H-pyrazol-5-yl)phenoxy]-3-cyano-N-[5-(trifluoromethyl)pyrimidin-2-yl]benzenesulfonamide]: the IC50 was 51000 nM. In the case of `Cn1nccc1-c1cc(Cl)ccc1Oc1ccc(S(=O)(=O)Nc2ncc(C#N)cn2)cc1C#N` [Example 463, 4-[4-chloro-2-(1-methyl-1H-pyrazol-5-yl)phenoxy]-3-cyano-N-(5-cyanopyrimidin-2-yl)benzenesulfonamide] it was 22000 nM; in that of `Cn1nccc1-c1cc(Cl)ccc1Oc1ccc(S(=O)(=O)Nc2ncc(Cl)cn2)cc1C#N` [Example 464, 4-[4-chloro-2-(1-methyl-1H-pyrazol-5-yl)phenoxy]-N-(5-chloropyrimidin-2-yl)-3-cyanobenzenesulfonamide], 6000 nM; in that of `Cn1nccc1-c1cc(Cl)ccc1Oc1ccc(S(=O)(=O)Nc2ncc(F)cn2)cc1C#N` [Example 465, 4-[4-chloro-2-(1-methyl-1H-pyrazol-5-yl)phenoxy]-3-cyano-N-(5-fluoropyrimidin-2-yl)benzenesulfonamide], 1000 nM.

Consider `Cn1nccc1-c1cc(Cl)ccc1Oc1ccc(S(=O)(=O)Nc2ccc(C#N)cn2)cc1C#N` [Example 466, 4-[4-chloro-2-(1-methyl-1H-pyrazol-5-yl)phenoxy]-3-cyano-N-(5-cyanopyridin-2-yl)benzenesulfonamide], for which the half-maximal inhibitory concentration (IC50) was 36000 nM. `Nc1[nH]ncc1-c1cc(Cl)ccc1Oc1cc(F)c(S(=O)(=O)Nc2ncc(Cl)s2)cc1F` [Example 467, 4-[2-(5-amino-1H-pyrazol-4-yl)-4-chlorophenoxy]-N-(5-chloro-1,3-thiazol-2-yl)-2,5-difluorobenzenesulfonamide]: the IC50 is 9.6 nM. As to `Cn1nccc1-c1cc(C(F)(F)F)ccc1Oc1cc(F)c(S(=O)(=O)Nc2ncns2)cc1F` [Example 468, 2,5-difluoro-4-[2-(1-methyl-1H-pyrazol-5-yl)-4-(trifluoromethyl)phenoxy]-N-1,2,4-thiadiazol-5-ylbenzenesulfonamide], the IC50 was 29 nM. In the case of `N#Cc1cc(S(=O)(=O)Nc2nccs2)ccc1Oc1ccc(-n2cccn2)cc1` [Example 469, 3-cyano-4-[4-(1H-pyrazol-1-yl)phenoxy]-N-1,3-thiazol-2-ylbenzenesulfonamide], the IC50 is 3300 nM.

For the compound `Cc1cn(C)nc1-c1ccc(Oc2ccc(S(=O)(=O)Nc3nccs3)cc2C#N)cc1` [Example 470, 3-cyano-4-[4-(1,4-dimethyl-1H-pyrazol-3-yl)phenoxy]-N-1,3-thiazol-2-ylbenzenesulfonamide], the 50% inhibitory concentration (IC50) is 3400 nM. Regarding `Cc1cn(C(F)F)nc1-c1ccc(Oc2ccc(S(=O)(=O)Nc3nccs3)cc2C#N)cc1` [Example 471, 3-cyano-4-{4-[1-(difluoromethyl)-4-methyl-1H-pyrazol-3-yl]phenoxy}-N-1,3-thiazol-2-ylbenzenesulfonamide], the IC50 is 2700 nM. In the case of `Cn1nc(C(F)(F)F)cc1-c1cc(F)c(F)c(Oc2ccc(S(=O)(=O)Nc3nccs3)cc2C#N)c1` [Example 472, 3-cyano-4-{2,3-difluoro-5-[1-methyl-3-(trifluoromethyl)-1H-pyrazol-5-yl]phenoxy}-N-1,3-thiazol-2-ylbenzenesulfonamide], the IC50 was 970 nM.

In general, IC50 refers to the concentration that gives 50% inhibition.
